From patent US10588839B2, “Method of shaping hair” (Conopco, Inc., priority 2013, dated 2020)

Legend:
[1] = Volume of hair switches by image analysis after soaking and combing, no heat treatment (Example 3); conditions: 30 min soak; for volume of treated hair switches: combed straight, dried; for % benefit: water as control
Text: Control switches were soaked in water.
When dry the switches were combed straight and pictures taken.

[2] = Volume of hair switches by image analysis after soaking, ironing at 200° C. and washing (Example 1)
Procedure: Dark brown wavy #6 European hair switches were soaked for 30 minutes in solutions of 2% glyceraldehyde at its natural or spontaneous pH.
All switches were combed straight and were dried in drying cabinets. When dry the switches were ironed with 7 passes using straighteners at 200° C.
The switches were subsequently washed after 3 days with base shampoo and combed straight and dried in drying cabinets.
When dry the switches were combed and pictures taken. The volumes of the switches were measured using an image analysis kit.
If the switches are visually straight then the volume of the switches (actually the projection of the volume in mm^2 on to an image plane) is a measure of the straightness benefits of the treatment.

SMILES | volume of treated hair switches [1] | % benefit [1] | % benefit after ironing + 1 wash ([2]; 2% glyceraldehyde solution, 30 min soak, 7 iron passes at 200° C., 1 wash, versus control) | % benefit after ironing + 2 washes ([2]; 2% glyceraldehyde solution, 30 min soak, 7 iron passes at 200° C., 2 washes, versus control) | Volume of treated hair switches after ironing + 2 washes ([2]; 2% glyceraldehyde solution, 30 min soak, 7 iron passes at 200° C., 3 day gap between washings) | Volume of treated hair switches after ironing + 1 wash ([2]; 2% glyceraldehyde solution, 30 min soak, 7 iron passes at 200° C., washed after 3 days with base shampoo) | straightness benefit (in words) ([2]; with heat treatment, after washing)
NCCCC[C@H](N)C(=O)O [2% Lysine, lysine] | 9975 mm^2 | 37.2% | – | – | – | – | –
O=CC(O)CO (stereo not drawn) [Glyceraldehyde, glyceraldehyde] | 12458 mm^2 | 21.6% | 26.4% | 11.3% | 11191.17 mm^2 | 10927.15 mm^2 | durable straightness benefits
